For 2 molecules, IC50 results are on record in ChEMBL document CHEMBL1124698, “Squalene analogues containing isopropylidene mimics as potential inhibitors of pig liver squalene epoxidase and oxidosqualene cyclase” (J Med Chem, 1989).

The target in one assay is T1, Lanosterol synthase (Rattus norvegicus, UniProt P48450).
T1 sequence (P48450 whole entry): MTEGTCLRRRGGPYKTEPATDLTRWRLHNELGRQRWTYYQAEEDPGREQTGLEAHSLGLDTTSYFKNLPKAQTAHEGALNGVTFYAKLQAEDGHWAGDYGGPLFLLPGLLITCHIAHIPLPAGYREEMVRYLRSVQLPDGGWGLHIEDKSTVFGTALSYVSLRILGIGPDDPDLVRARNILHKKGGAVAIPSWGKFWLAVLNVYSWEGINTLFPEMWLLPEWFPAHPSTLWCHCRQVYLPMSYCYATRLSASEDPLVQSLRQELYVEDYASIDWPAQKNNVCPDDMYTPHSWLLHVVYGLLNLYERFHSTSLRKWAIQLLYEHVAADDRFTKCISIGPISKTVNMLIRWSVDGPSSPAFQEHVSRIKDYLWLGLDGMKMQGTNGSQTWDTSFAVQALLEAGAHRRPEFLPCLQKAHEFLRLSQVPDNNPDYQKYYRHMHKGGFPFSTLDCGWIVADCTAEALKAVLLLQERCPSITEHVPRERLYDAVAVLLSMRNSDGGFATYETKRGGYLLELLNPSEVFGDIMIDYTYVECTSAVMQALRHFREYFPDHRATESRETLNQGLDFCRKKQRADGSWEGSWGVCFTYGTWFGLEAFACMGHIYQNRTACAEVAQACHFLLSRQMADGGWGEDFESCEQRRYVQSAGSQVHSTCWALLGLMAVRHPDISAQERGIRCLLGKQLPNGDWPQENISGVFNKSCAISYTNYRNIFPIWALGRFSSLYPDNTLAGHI
The assay can be described thus: Inhibitory activity against Oxidosqualene-lanosterol cyclase in pig liver; NI-No inhibitory effect at 400 uM. On the set-up: species or system Sus scrofa. Conditions: target entry is the homologue from another species.

The next assay deals with Squalene monooxygenase (Homo sapiens, UniProt Q14534). Kind of assay: Inhibitory activity against Squalene Epoxidase in pig liver; NI-No inhibitory effect at 400 uM. Set-up: species or system Sus scrofa. Conditions: target entry is the homologue from another species.
Sequence of Squalene monooxygenase (Q14534 whole entry): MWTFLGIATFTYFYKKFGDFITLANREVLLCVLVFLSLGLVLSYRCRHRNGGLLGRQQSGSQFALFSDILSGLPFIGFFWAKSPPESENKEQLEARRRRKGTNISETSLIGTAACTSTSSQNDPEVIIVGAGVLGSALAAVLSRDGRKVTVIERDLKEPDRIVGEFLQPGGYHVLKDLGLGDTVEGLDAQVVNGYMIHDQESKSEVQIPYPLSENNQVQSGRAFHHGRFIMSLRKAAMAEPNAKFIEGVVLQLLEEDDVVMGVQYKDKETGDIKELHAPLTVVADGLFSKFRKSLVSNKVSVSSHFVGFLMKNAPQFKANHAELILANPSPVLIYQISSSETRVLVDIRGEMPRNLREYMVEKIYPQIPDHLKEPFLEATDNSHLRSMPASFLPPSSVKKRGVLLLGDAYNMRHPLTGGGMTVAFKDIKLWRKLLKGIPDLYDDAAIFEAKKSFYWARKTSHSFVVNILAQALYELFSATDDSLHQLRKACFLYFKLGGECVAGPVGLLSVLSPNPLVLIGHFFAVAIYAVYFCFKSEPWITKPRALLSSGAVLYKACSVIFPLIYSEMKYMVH

Consider `C=C=CCC/C(C)=C/CC/C(C)=C/CC/C=C(\C)CC/C=C(\C)CCC=C(C)C`, for which the IC50 entry against Lanosterol synthase and at Squalene monooxygenase was “No inhibition” throughout. Regarding `C#CCC/C(C)=C/CC/C(C)=C/CC/C=C(\C)CC/C=C(\C)CCC=C(C)C`, the IC50 entry on Squalene monooxygenase is listed as “No inhibition”.
